# Experiments:
# [1] = test system: amyloid-beta 1-42 injured primary cortical rat neurons; assay: In vitro Alzheimer disease model: amyloid-beta 1-42 injured primary cortical rat neurons; type: cell-based; details: Amyloid-beta 1-42 20 μM, 24 hours; total number of neurons (MAP-2)
# Method: Rat cortical neurons were cultured as described by Singer et al., (1999 J. Neuroscience 19 pp2455-63) and Callizot et al., (2013 J.Neurosci. Res. 91 pp706-16). Pregnant females (Wistar; Janvier Labs) at 15 days of gestation were killed by cervical dislocation. Fetuses were collected and immediately placed in ice-cold L15 Leibovitz medium (Pan Biotech, Batch: 9310614) with a 2% penicillin (10,000 U/mI) and streptomycin (10 mg/ml) solution (PS; Pan Biotech, Batch: 1451013) and 1% bovine serum albumin (BSA; Pan Biotech, Batch: h140603). Cortex was treated for 20 min at 37° C. with a trypsin-EDTA (Pan Biotech, Batch: 5890314) solution at a final concentration of 0.05% trypsin and 0.02% EDTA. […] Viable cells were counted in a Neubauer cytometer, using the trypan blue exclusion test. […]
# The Amyloid-beta1-42 preparation was done following the procedure described by Callizot et al., 2013. […] Amyloid-beta 1-42 preparation was added to a final concentration of 20 μM (including to ˜2 μM of toxic oligomers measured by WB) diluted in control medium in presence of drugs. […]
# The immunolabeled cultures were automatically examined with ImageXpress (Molecular device USA) at ×20 magnification. For each condition, 30 automatically fields per well (representing ˜80% of the total surface of the well) from 3 wells were analyzed. […] All values were expressed as mean +/−SEM (s.e.mean) (n=3 wells per condition per culture).
# [2] = test system: neonatal rat cardiomyocytes; assay: Hypoxia-induced apoptosis in cultured neonatal rat cardiomyocytes; type: cell-based; details: hypoxia 0.3% O2 for 36 h, apoptotic cells by FACS
# Source text: Primary cultures of neonatal rat cardiomyocytes were obtained from the ventricles of 1-day-old Sprague Dawley rats (Janvier, France). The rats were euthanized and their hearts excised. Hearts cut into small pieces (1-2 mm^3) and enzymatically digested using the Neonatal Heart Dissociation Kit rat and the gentleMACS™ Dissociator (MiltenyiBiotec, Germany). After dissociation, the homogenates were filtered (70 μm) to obtain a single-cell suspension. Isolated cells were collected by centrifugation and resuspended in Dulbecco's Modified Eagle's Medium (DMEM) containing 10% horse serum (HS), 5% fetal bovine serum (FBS) and 1% penicillin/streptomycin. Cultures were enriched with myocytes by pre-plating for 90 min to deplete the population of non-myocytes. Non-attached cells were plated onto 6- or 96-well plates at an appropriate cell density. […]
# After 24 hours, the cardiomyocytes were treated with different concentrations of test compound in culture medium with 0.1% DMSO. […] Thirty minutes after starting the treatments, the cells were incubated in the hypoxic culture chamber (N2/CO2, 95%/5%; final measured O2: 0.3%) for 36 hours. […]
# At the end of the treatment period, flow cytometry were performed to measure the amount of apoptotic cells. […] The mixture was incubated for 15 min in the dark at room temperature, and cellular fluorescence was then measured by FACS scan flow cytometry.
Compound,protection of amyloid-beta 1-42 injured primary cortical rat neurons (FIG. 4) [1],protection from hypoxia-induced apoptosis (FIG. 10) [2]
"CCCONC(=N)N/N=C/c1ccccc1Cl [Compound 12, 2-(2-chlorobenzylidene)-N-propoxyhydrazinecarboximidamide]",dose dependent protection,–
"CCO/N=C(\N)N/N=C/c1ccccc1Cl [Compound 10, 2-(2-chlorobenzylidene)-N′-ethoxyhydrazinecarboximidamide]",–,protects
